In US20250122219A1 (priority 2023, published 2025) one finds CC50 and EC50 data, which are given here for 17 compounds.

The nature of series [1]: Cytotoxicity assay in MT-4 cells. Format: cell-based. Particulars: human; uninfected MT-4 cells, 5 days incubation, Cell Titer Glo; read-out: MT4 CC50. An outline of the steps:
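Viability read by Cell Titer Glo luminescence after 5 days at 37 °C. MT-4 cells, not infected, in complete RPMI (10% FBS), received compound dilution series. Base cytotoxicity set with […] puromycin.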
(ATP-based viability assays read luminescence as a measure of living cells.)

Series [2] relates to HIV-1 (IIIB). Kind of series: Antiviral assay in MT-4 cells. Format: cell-based. The note with it: Human immunodeficiency virus 1, MT4, 120 h; HIV-1 IIIB in MT-4 cells, 5 days incubation, Cell Titer Glo; read-out: MT4 EC50. In outline:
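Read-out: CellTiter-Glo luminescence after 5 days at 37 °C, reflecting survival of MT-4 cells infected with HIV-1 IIIB (1:250 fresh stock dilution) versus mock-infected. Compounds serially diluted into RPMI with 10% FBS; AZT at 5 μM served as positive control.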

Where only a bound is given, the exact number is not on record here.

Broadly, the CC50 is the concentration at which the toxic effect on the cells reaches its halfway point. Usually EC50 stands for the concentration at which the effect is half-maximal. For `CCCCCOC(=O)Oc1c2n(cc(C(=O)NCc3ccc(F)cc3F)c1=O)[C@@H]1CN(C2=O)[C@@H](C)CC[C@]12CC(OC)=NO2` [Example 130, (3′S,5S,7′R)-10′-((2,4-difluorobenzyl)carbamoyl)-3-methoxy-3′-methyl-1′,11′-dioxo-1′,4′,5′,11′-tetrahydro-3′H,4H,7′H-spiro[isoxazole-5,6′-[2,7]methanopyrido[1,2-a][1,4]diazonin]-12′-yl pentyl carbonate], the CC50 at 5 days in series [1] amounted to 31700 nM. The EC50 in series [2] was determined as 1.83 nM.

As for `CCCCCCOC(=O)Oc1c2n(cc(C(=O)NCc3ccc(F)cc3F)c1=O)[C@@H]1CN(C2=O)[C@@H](C)CC[C@]12CC(C)=NO2` [Example 131, (3′S,5S,7′R)-10′-((2,4-difluorobenzyl)carbamoyl)-3,3′-dimethyl-1′,11′-dioxo-1′,4′,5′,11′-tetrahydro-3′H,4H,7′H-spiro[isoxazole-5,6′-[2,7]methanopyrido[1,2-a][1,4]diazonin]-12′-yl hexyl carbonate], the cytotoxic concentration (CC50) at 5 days in series [1] amounted to 19800 nM. Also, in series [2], the EC50 stood at 0.136 nM.

For the compound `CCCCCCOC(=O)Oc1c2n(cc(C(=O)NCc3ccc(F)cc3F)c1=O)[C@@H]1CN(C2=O)[C@@H](C)CC[C@]12CC(OC)=NO2` [Example 132, (3′S,5S,7′R)-10′-((2,4-difluorobenzyl)carbamoyl)-3-methoxy-3′-methyl-1′,11′-dioxo-1′,4′,5′,11′-tetrahydro-3′H,4H,7′H-spiro[isoxazole-5,6′-[2,7]methanopyrido[1,2-a][1,4]diazonin]-12′-yl hexyl carbonate], the CC50 at 5 days in series [1] was found to be 17800 nM. The 50% effective concentration (EC50) in series [2] was 0.153 nM.

With `CCCCCCCOC(=O)Oc1c2n(cc(C(=O)NCc3ccc(F)cc3F)c1=O)[C@@H]1CN(C2=O)[C@@H](C)CC[C@]12CC(C)=NO2` [Example 133, (3′S,5S,7′R)-10′-((2,4-difluorobenzyl)carbamoyl)-3,3′-dimethyl-1′,11′-dioxo-1′,4′,5′,11′-tetrahydro-3′H,4H,7′H-spiro[isoxazole-5,6′-[2,7]methanopyrido[1,2-a][1,4]diazonin]-12′-yl heptyl carbonate], the cytotoxic concentration (CC50) at 5 days in series [1] is 16700 nM. The EC50 in series [2] stood at 0.819 nM.

Consider `CCCCCCCOC(=O)Oc1c2n(cc(C(=O)NCc3ccc(F)cc3F)c1=O)[C@@H]1CN(C2=O)[C@@H](C)CC[C@]12CC(OC)=NO2` [Example 134, (3′S,5S,7′R)-10′-((2,4-difluorobenzyl)carbamoyl)-3-methoxy-3′-methyl-1′,11′-dioxo-1′,4′,5′,11′-tetrahydro-3′H,4H,7′H-spiro[isoxazole-5,6′-[2,7]methanopyrido[1,2-a][1,4]diazonin]-12′-yl heptyl carbonate], for which, in series [1], the CC50 at 5 days was found to be 25700 nM. The EC50 in series [2] was found to be 0.516 nM.

For the compound `CCCCCCCCOC(=O)Oc1c2n(cc(C(=O)NCc3ccc(F)cc3F)c1=O)[C@@H]1CN(C2=O)[C@@H](C)CC[C@]12CC(C)=NO2` [Example 135, (3′S,5S,7′R)-10′-((2,4-difluorobenzyl)carbamoyl)-3,3′-dimethyl-1′,11′-dioxo-1′,4′,5′,11′-tetrahydro-3′H,4H,7′H-spiro[isoxazole-5,6′-[2,7]methanopyrido[1,2-a][1,4]diazonin]-12′-yl octyl carbonate], in series [1], the CC50 at 5 days is 14200 nM. The EC50 in series [2] stood at 0.409 nM.

With `CCCCCCCCOC(=O)Oc1c2n(cc(C(=O)NCc3ccc(F)cc3F)c1=O)[C@@H]1CN(C2=O)[C@@H](C)CC[C@]12CC(OC)=NO2` [Example 136, (3′S,5S,7′R)-10′-((2,4-difluorobenzyl)carbamoyl)-3-methoxy-3′-methyl-1′,11′-dioxo-1′,4′,5′,11′-tetrahydro-3′H,4H,7′H-spiro[isoxazole-5,6′-[2,7]methanopyrido[1,2-a][1,4]diazonin]-12′-yl octyl carbonate], in series [1], the CC50 at 5 days turned out to be 23500 nM. Further, the EC50 in series [2] is 0.496 nM.

In the case of `CCCCCCCCCOC(=O)Oc1c2n(cc(C(=O)NCc3ccc(F)cc3F)c1=O)[C@@H]1CN(C2=O)[C@@H](C)CC[C@]12CC(C)=NO2` [Example 137, (3′S,5S,7′R)-10′-((2,4-difluorobenzyl)carbamoyl)-3,3′-dimethyl-1′,11′-dioxo-1′,4′,5′,11′-tetrahydro-3′H,4H,7′H-spiro[isoxazole-5,6′-[2,7]methanopyrido[1,2-a][1,4]diazonin]-12′-yl nonyl carbonate], the CC50 at 5 days in series [1] turned out to be 10200 nM. Besides, the EC50 in series [2] was found to be 2.07 nM.

Regarding `CCCCCCCCCOC(=O)Oc1c2n(cc(C(=O)NCc3ccc(F)cc3F)c1=O)[C@@H]1CN(C2=O)[C@@H](C)CC[C@]12CC(OC)=NO2` [Example 138, (3′S,5S,7′R)-10′-((2,4-difluorobenzyl)carbamoyl)-3-methoxy-3′-methyl-1′,11′-dioxo-1′,4′,5′,11′-tetrahydro-3′H,4H,7′H-spiro[isoxazole-5,6′-[2,7]methanopyrido[1,2-a][1,4]diazonin]-12′-yl nonyl carbonate], the CC50 at 5 days in series [1] was determined as 14100 nM. In series [2], the EC50 was determined as 2.14 nM.

In the case of `CCCCCCCCCCOC(=O)Oc1c2n(cc(C(=O)NCc3ccc(F)cc3F)c1=O)[C@@H]1CN(C2=O)[C@@H](C)CC[C@]12CC(C)=NO2` [Example 139, decyl ((3′S,5S,7′R)-10′-((2,4-difluorobenzyl)carbamoyl)-3,3′-dimethyl-1′,11′-dioxo-1′,4′,5′,11′-tetrahydro-3′H,4H,7′H-spiro[isoxazole-5,6′-[2,7]methanopyrido[1,2-a][1,4]diazonin]-12′-yl) carbonate], the CC50 at 5 days in series [1] is 13200 nM. Besides, the EC50 in series [2] amounted to 0.995 nM.

Consider `CCCCCCCCCCOC(=O)Oc1c2n(cc(C(=O)NCc3ccc(F)cc3F)c1=O)[C@@H]1CN(C2=O)[C@@H](C)CC[C@]12CC(OC)=NO2` [Example 140, decyl ((3′S,5S,7′R)-10′-((2,4-difluorobenzyl)carbamoyl)-3-methoxy-3′-methyl-1′,11′-dioxo-1′,4′,5′,11′-tetrahydro-3′H,4H,7′H-spiro[isoxazole-5,6′-[2,7]methanopyrido[1,2-a][1,4]diazonin]-12′-yl) carbonate], for which the CC50 at 5 days in series [1] came to 15900 nM. For the same compound, the 50% effective concentration (EC50) in series [2] was determined as 3.36 nM.

In the case of `CCCCCCCCCCCCOC(=O)Oc1c2n(cc(C(=O)NCc3ccc(F)cc3F)c1=O)[C@@H]1CN(C2=O)[C@@H](C)CC[C@]12CC(C)=NO2` [Example 141, (3′S,5S,7′R)-10′-((2,4-difluorobenzyl)carbamoyl)-3,3′-dimethyl-1′,11′-dioxo-1′,4′,5′,11′-tetrahydro-3′H,4H,7′H-spiro[isoxazole-5,6′-[2,7]methanopyrido[1,2-a][1,4]diazonin]-12′-yl dodecyl carbonate], in series [1], the CC50 at 5 days came out at 16500 nM. Moreover, the EC50 in series [2] was 2.64 nM.

As for `CCCCCCCCCCCCOC(=O)Oc1c2n(cc(C(=O)NCc3ccc(F)cc3F)c1=O)[C@@H]1CN(C2=O)[C@@H](C)CC[C@]12CC(OC)=NO2` [Example 142, (3′S,5S,7′R)-10′-((2,4-difluorobenzyl)carbamoyl)-3-methoxy-3′-methyl-1′,11′-dioxo-1′,4′,5′,11′-tetrahydro-3′H,4H,7′H-spiro[isoxazole-5,6′-[2,7]methanopyrido[1,2-a][1,4]diazonin]-12′-yl dodecyl carbonate], the CC50 at 5 days in series [1] came out at 36400 nM. Also, in series [2], the EC50 was 3.64 nM.

As to `CCCCCCCCCCCCCCCCOC(=O)Oc1c2n(cc(C(=O)NCc3ccc(F)cc3F)c1=O)[C@@H]1CN(C2=O)[C@@H](C)CC[C@]12CC(C)=NO2` [Example 144, (3′S,5S,7′R)-10′-((2,4-difluorobenzyl)carbamoyl)-3,3′-dimethyl-1′,11′-dioxo-1′,4′,5′,11′-tetrahydro-3′H,4H,7′H-spiro[isoxazole-5,6′-[2,7]methanopyrido[1,2-a][1,4]diazonin]-12′-yl hexadecyl carbonate], in series [1], the CC50 at 5 days is at least 50000 nM. Also, in series [2], the EC50 turned out to be 6.9 nM.

For `CCCCCCCCCCCCCCCCOC(=O)Oc1c2n(cc(C(=O)NCc3ccc(F)cc3F)c1=O)[C@@H]1CN(C2=O)[C@@H](C)CC[C@]12CC(OC)=NO2` [Example 145, (3′S,5S,7′R)-10′-((2,4-difluorobenzyl)carbamoyl)-3-methoxy-3′-methyl-1′,11′-dioxo-1′,4′,5′,11′-tetrahydro-3′H,4H,7′H-spiro[isoxazole-5,6′-[2,7]methanopyrido[1,2-a][1,4]diazonin]-12′-yl hexadecyl carbonate], the CC50 at 5 days in series [1] is at least 50000 nM. In series [2], the EC50 turned out to be 5.93 nM.

Consider `CCCCCCCCCCCCCCCCCCOC(=O)Oc1c2n(cc(C(=O)NCc3ccc(F)cc3F)c1=O)[C@@H]1CN(C2=O)[C@@H](C)CC[C@]12CC(C)=NO2` [Example 146, (3′S,5S,7′R)-10′-((2,4-difluorobenzyl)carbamoyl)-3,3′-dimethyl-1′,11′-dioxo-1′,4′,5′,11′-tetrahydro-3′H,4H,7′H-spiro[isoxazole-5,6′-[2,7]methanopyrido[1,2-a][1,4]diazonin]-12′-yl octadecyl carbonate], for which the CC50 at 5 days in series [1] was at least 50000 nM. Besides, the EC50 in series [2] stood at 7.56 nM.

For `CCCCCCCCCCCCCCCCCCOC(=O)Oc1c2n(cc(C(=O)NCc3ccc(F)cc3F)c1=O)[C@@H]1CN(C2=O)[C@@H](C)CC[C@]12CC(OC)=NO2` [Example 147, (3′S,5S,7′R)-10′-((2,4-difluorobenzyl)carbamoyl)-3-methoxy-3′-methyl-1′,11′-dioxo-1′,4′,5′,11′-tetrahydro-3′H,4H,7′H-spiro[isoxazole-5,6′-[2,7]methanopyrido[1,2-a][1,4]diazonin]-12′-yl octadecyl carbonate], the CC50 at 5 days in series [1] was at least 50000 nM. Moreover, the EC50 in series [2] was determined as 7.16 nM.
